According to ChEMBL document CHEMBL1124634, “Synthesis and antirhinovirus activity of 6-(dimethylamino)-2-(trifluoromethyl)-9-(substituted benzyl)-9H-purines” (J Med Chem, 1989):

Tests used:
[1] = Antiviral activity against rhinoviral 18 serotype in a plaque inhibition assay using monolayers of M-HeLa cells at 8 uM; assay type: functional, cell-based; settings: Homo sapiens
[2] = tested on: Human rhinovirus sp.; test: Antiviral activity against rhinoviral 29 serotype in a plaque inhibition assay using monolayers of M-HeLa cells; assay type: functional, organism-based
[3] = tested on: Human rhinovirus sp.; test: Antiviral activity against rhinoviral 4 serotype in a plaque inhibition assay using monolayers of M-HeLa cells; assay type: functional, organism-based
[4] = tested on: Human rhinovirus sp.; test: Antiviral activity against rhinoviral 8 serotype in a plaque inhibition assay using monolayers of M-HeLa cells; assay type: functional, organism-based
[5] = tested on: Human rhinovirus sp.; test: Antiviral activity against rhinoviral 14 serotype in a plaque inhibition assay using monolayers of M-HeLa cells; assay type: functional, organism-based
[6] = tested on: Human rhinovirus sp.; test: Antiviral activity against rhinoviral 15 serotype in a plaque inhibition assay using monolayers of M-HeLa cells; assay type: functional, organism-based
[7] = tested on: Human rhinovirus sp.; test: Antiviral activity against rhinoviral 16 serotype in a plaque inhibition assay using monolayers of M-HeLa cells; assay type: functional, organism-based
[8] = tested on: Human rhinovirus sp.; test: Antiviral activity against rhinoviral 12 serotype in a plaque inhibition assay using monolayers of M-HeLa cells; assay type: functional, organism-based
[9] = tested on: Human rhinovirus sp.; test: Antiviral activity against rhinoviral-1A serotype in a plaque inhibition assay using monolayers of M-HeLa cells; assay type: functional, organism-based
[10] = tested on: Human rhinovirus sp.; test: Antiviral activity against rhinoviral-1B serotype in a plaque inhibition assay using monolayers of M-HeLa cells; assay type: functional, organism-based
[11] = tested on: Human rhinovirus sp.; test: Percent inhibitory activity at 8 uM against rhinoviral 13 serotype in a plaque inhibition assay using monolayers of M-HeLa cells; assay type: functional
[12] = tested on: Human rhinovirus sp.; test: Percent inhibitory activity at 8 uM against rhinoviral 19s erotype in a plaque inhibition assay using monolayers of M-HeLa cells; assay type: functional
[13] = tested on: Human rhinovirus sp.; test: Percent inhibitory activity at 8 uM against rhinoviral 21 serotype in a plaque inhibition assay using monolayers of M-HeLa cells; assay type: functional
[14] = tested on: Human rhinovirus sp.; test: Percent inhibitory activity at 8 uM against rhinoviral 31 serotype in a plaque inhibition assay using monolayers of M-HeLa cells; assay type: functional
[15] = tested on: Human rhinovirus sp.; test: Percent inhibitory activity at 8 uM against rhinoviral 3 serotype in a plaque inhibition assay using monolayers of M-HeLa cells; assay type: functional
[16] = tested on: Human rhinovirus sp.; test: Percent inhibitory activity at 8 uM against rhinoviral 5 serotype in a plaque inhibition assay using monolayers of M-HeLa cells; assay type: functional
[17] = Percent inhibitory activity at 8 uM against rhinoviral 2 serotype in a plaque inhibition assay using monolayers of M-HeLa cells; assay type: functional, Homo sapiens
[18] = tested on: Human rhinovirus sp.; test: Antiviral activity against rhinoviral 9 serotype in a plaque inhibition assay using monolayers of M-HeLa cells; assay type: functional, organism-based
[19] = tested on: Human rhinovirus sp.; test: Percent inhibitory activity at 8 uM against rhinoviral 30 serotype in a plaque inhibition assay using monolayers of M-HeLa cells; assay type: functional
[20] = tested on: Human rhinovirus sp.; test: Antiviral activity against rhinoviral 30 serotype in a plaque inhibition assay using monolayers of M-HeLa cells; assay type: functional, organism-based
[21] = tested on: Human rhinovirus sp.; test: Antiviral activity against rhinoviral-18 serotype in a plaque inhibition assay using monolayers of M-HeLa cells; assay type: functional, organism-based
[22] = tested on: Human rhinovirus sp.; test: Percent inhibitory activity at 8 uM against rhinoviral 15 serotype in a plaque inhibition assay using monolayers of M-HeLa cells; assay type: functional
[23] = tested on: Human rhinovirus sp.; test: Percent inhibitory activity at 8 uM against rhinoviral 4 serotype in a plaque inhibition assay using monolayers of M-HeLa cells; assay type: functional
[24] = Percent inhibitory activity at 8 uM against rhinoviral-19 serotype in a plaque inhibition assay using monolayers of M-HeLa cells; assay type: functional, Homo sapiens
[25] = tested on: Human rhinovirus sp.; test: Antiviral activity against rhinoviral 31 serotype in a plaque inhibition assay using monolayers of M-HeLa cells; assay type: functional, organism-based

SMILES | IC50 [2] [µM] | IC50 [4] [µM] | IC50 [5] [µM] | IC50 [7] [µM] | IC50 [8] [µM] | IC50 [9] [µM] | IC50 [10] [µM] | Inhibition [11] [%] | Inhibition [13] [%] | Inhibition [15] [%] | Inhibition [16] [%] | Inhibition [17] [%] | IC50 [18] [µM] | other results
CN(C)c1nc(C(F)(F)F)nc2c1ncn2Cc1ccccc1 | 3.2 | 8 | 8 | 0.96 | 3.8 | 1.1 | 0.04 | 22 | 28 | 20 | 33 | 33 | 0.46 | IC50 [1]: 10 µM; IC50 [3]: 8.8 µM; IC50 [6]: 4.8 µM; Inhibition [12]: 32%; Inhibition [14]: 37%; Inhibition [19]: 19%
CN(C)c1nc(C(F)(F)F)nc2c1ncn2Cc1ccc(Cl)c(NC=O)c1 | 6.3 | 6.7 | 9.6 | 1.9 | 5 | 8 | 0.56 | 43 | 20 | 40 | 36 | 35 | 1.8 | IC50 [20]: 6.5 µM; IC50 [21]: 8.7 µM; Inhibition [22]: 29%; Inhibition [23]: 34%; Inhibition [24]: 18%; IC50 [25]: 8 µM
